# From PubChem BioAssay AID651870 (NMMLSC, 2012)
# Test system: AM2.2-beta2AR cells viability, CellTiter-Glo luminescence, 18 h
# Test: cell toxicity in β2-adrenergic receptor AM2.2 line, concentration-response, toxicity counterscreen for β2-adrenergic receptor internalization ligand project, cell-based, CellTiter-Glo luminescent readout, Powder Set 4 (AID 651870)
row,SMILES,EC50 [µM]
1,CN(CC(=O)N1CCN(c2cccc(C(F)(F)F)c2)CC1)S(=O)(=O)c1ccc(F)cc1,31.9
2,CCCCC(=O)Nc1ccc(S(=O)(=O)N2CCCCC2c2cccnc2)cc1 (stereo not drawn),8.76
3,Cc1ccc(S(=O)(=O)N2CCCCC2C(=O)N2CCN(c3ccc(C(F)(F)F)cn3)CC2)cc1 (stereo not drawn),12.8
